Laboratory results published in paper PMC12518639, “Apomorphine is a novel necroptosis inhibitor targeting mixed lineage kinase domain-like protein oligomerization” (Cell Death Discovery, 2025).

Tests used:
Wt-hMLKL = target: T1, Wt-hMLKL (Homo sapiens, UniProt Q8NB16); assay: SPR binding to Wt-hMLKL; conditions: for Kd: SPR, CM5 chip, 25 °C
T1 construct: purchased Abcam ab241453
T1 sequence (Q8NB16 1-471): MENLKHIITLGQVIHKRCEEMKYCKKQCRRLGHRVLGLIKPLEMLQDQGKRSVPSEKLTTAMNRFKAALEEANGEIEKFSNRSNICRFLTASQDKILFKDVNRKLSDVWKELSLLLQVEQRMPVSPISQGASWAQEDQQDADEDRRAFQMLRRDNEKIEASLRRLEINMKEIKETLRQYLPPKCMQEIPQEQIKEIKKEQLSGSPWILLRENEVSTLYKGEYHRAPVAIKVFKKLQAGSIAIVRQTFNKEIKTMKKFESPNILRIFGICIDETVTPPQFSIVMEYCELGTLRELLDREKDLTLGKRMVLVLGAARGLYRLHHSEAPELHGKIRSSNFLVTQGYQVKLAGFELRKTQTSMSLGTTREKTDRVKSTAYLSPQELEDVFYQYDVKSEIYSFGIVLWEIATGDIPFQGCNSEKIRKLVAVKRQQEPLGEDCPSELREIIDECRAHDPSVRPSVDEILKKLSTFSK
From the text: (§1) The hMLKL plasmid (RC213152, OriGene, Rockville, MD, USA), and recombinant Wt-hMLKL (ab241453, Abcam) and Wt-mMLKL (MBS1379843, MyBioSource, San Diego, CA, USA) proteins were purchased. Nt-hMLKL (2–154), Nt-mMLKL (1–180), and Ct-hMLKL (183–471) were generated using the pBT7-N-His vector. Nt-hMLKL^C86A, Nt-hMLKL^F148A, -hMLKL^C86A/L89A/D94A, and Nt-hMLKL^R145A/R146A/F148A/M150A were generated using the Site-directed Mutagenesis Kit (EZ004S, Enzynomics, S. Korea). These constructs were subcloned into pBT7-N-His and pET-15b plasmid vectors. E. coli BL21 cells transformed with the cloned expression vectors were cultured in LB medium and supplemented with 100 μg/mL ampicillin until an OD at 600 nm of 0.5–0.6 was reached. The cultures were induced by 1 mM IPTG (367-93-1, Sigma-Aldrich). The cells were lysed and centrifuged. The clear supernatants were subjected to Ni-NTA affinity chromatography (175018169, QIAGEN, Hilden, Germany). Plasmids encoding mMLKL (1–464)–gyrase fusion constructs were kindly provided by Prof. James Murphy (Cell Signalling and Cell Death Division, The Walter and Eliza Hall Institute of Medical Research, Parkville, Victoria 3052, Australia).
The interactions of Wt-hMLKL, Wt-mMLKL, Nt-mMLKL, Nt, and Ct-hMLKL proteins with Re-APO or Ox-APO were detected through SPR analysis using Biacore™ T200 (Cytiva, Marlborough, MA, USA). Each MLKL protein was immobilized on a CM5 sensor chip. To derive the Rligand values, coupling processes were performed based on the molecular weights of the MLKL protein (MW ligand) and Re-APO or Ox-APO (MW analyte). Re-APO or Ox-APO was injected into an HBS buffer (10 mM HEPES, 150 mM NaCl, 3.4 mM EDTA, and 0.005% Tween 20, pH 7.4) at 25 °C (10 μL/min flow rate). Sensorgrams were recorded and analyzed in real-time using the control software in the BIAcore T200 system. All data were analyzed using the BIA evaluation software (Cytiva).

Ct-hMLKL (183–471) = target: T2, Ct-hMLKL (183–471) (Homo sapiens, UniProt Q8NB16); assay: SPR binding to Ct-hMLKL; conditions: CM5 chip
T2 construct: Nt-hMLKL (2–154), Nt-mMLKL (1–180), and Ct-hMLKL (183–471) were generated using the pBT7-N-His vector; His (N); made in house; host or cells: E. coli BL21
From the text: as §1, with “James Murphy (Cell Signalling and Cell Death Division, The Walter and Eliza Hall Institute of Medical Research, Parkville, Victoria 3052, Australia).” left out
The interactions of Wt-hMLKL, Wt-mMLKL, Nt-mMLKL, Nt, and Ct-hMLKL proteins with Re-APO or Ox-APO were detected through SPR analysis using Biacore™ T200 (Cytiva, Marlborough, MA, USA). […] Sensorgrams were recorded and analyzed in real-time using the control software in the BIAcore T200 system. All data were analyzed using the BIA evaluation software (Cytiva).

Compound | Kd (Wt-hMLKL) | fold stronger binding than Re-APO (Wt-hMLKL; from KD values) | binding in SPR (Ct-hMLKL (183–471))
CN1CCc2cccc3c4c(cc1c23)C=CC(=O)C4=O [Ox-APO] | 5 nM | ~ 50 fold | no detectable binding
CN1CCc2cccc3c2C1Cc1ccc(O)c(O)c1-3 (centres unmarked) [Re-APO] | 244 nM |  | no detectable binding
